Data from patent publication US7629317B2, “Control of growth and repair of gastro-intestinal tissues by gastrokines and inhibitors” (The University of Chicago, priority 2001, dated 2009).
Entries after “also recorded” stand apart in the source; their conditions may differ.

Tests used:
IEC-18 cells = assay: Wound restitution (migration) of scrape-wounded IEC-18 cell monolayers; assay type: cell-based, rat
Protocol: Confluent monolayer cultures were mechanically wounded by scraping with a razor blade, and the distance that cells migrated from the wound edge was measured using a microscope eyepiece reticle.
In a separate set of experiments DSS reduced restitution of scrape-wounded cultures of non-transformed diploid rat intestinal epithelial IEC-18 cells (P<0.001) (FIG. 29, right panel). When DSS was removed by aspirating the medium and the cultures allowed to recover for 24 hr after scrape wounding, cell migration during the next 24 hr was 40% greater in the presence of AMP peptide compared to vehicle (P<0.001).

hsp25, hsp72 = assay: Expression of heat shock proteins by IEC-18 cells after thermal injury (immunoblot); assay type: cell-based, rat; conditions: 42° C. 23 min, peptide 8 μg/ml; 12 and 24 hr; listed as AMP peptide
Protocol: FIG. 42. Effect of AMP peptide on expression of heat shock proteins by intestinal epithelial cells after thermal injury. IEC-18 cell monolayers were subjected to non-lethal heat shock injury by exposure to 42° C. for 23 min. Immediately thereafter some cultures received AMP peptide (8 μg/ml) (P on figure); control cultures (C) received vehicle. Whole cell protein was analyzed by immunoblotting. Increased expression of hsp25 and induced hsp72 is seen 12 hr after heat shock in control cultures, but constitutive expression of hsc73 is not altered. Expression of hsp25 and 72 was increased after treatment with AMP peptide compared to vehicle at 12 and 24 hr.
In an effort to identify molecules that could mediate the cytoprotective effect of AMP peptide, it was asked if exposing intestinal epithelial cells to the peptide could modify induction of heat shock proteins (hsps) (Musch et al., 1996). Diploid non-transformed rat intestinal epithelial IEC-18 cells were used to study induction of hsps in response to thermal injury rather than C2 cells—which constitutively express hsp27 and hsp72 at high levels, possibly because they are transformed. (Hsp27 is found in human C2 cells, and hsp25 in rat IEC-18 cells. Hsp72 is often referred to as hsp70). The results depicted in FIG. 42 indicate that, as expected, hsc73 and hsp25 are constitutively expressed (0 hr), but hsp72 is not. […]

[1] = test system: tyrosine phosphorylation, p38 MAP kinase, hsp25, JNK1/2, ERK1/2; assay: Phosphorylation of signaling proteins in IEC-18 cells (immunoblot); assay type: cell-based, rat
Protocol: To find signaling molecules by which AMP peptide mediates its biological effects, it was asked if the peptide stimulates tyrosine phosphorylation in GI epithelial cells. IEC-18 cells were treated with AMP peptide for different periods of time, the cells were then lysed, the proteins extracted and separated on SDS-polyacrylamide gels, blotted, and the blot was probed with 4G10 anti-phosphotyrosine monoclonal antibody.
First the effect of AMP peptide on phosphorylation of p38 MAPK in IEC-18 cells was examined. After exposure to the peptide (8 μg/ml) for up to 2 hr, the cells were lysed, the proteins were extracted, and Western blot analysis was performed using anti-phospho-specific p38 antibody. Then the membrane was stripped and reprobed with anti-p38 antibody. […] Next, to see if AMP peptide stimulated phosphorylation of hsp25, a specific anti-phospho-hsp25 antibody (Affinity BioReagents) was used to probe a blot prepared using AMP peptide-treated IEC-18 cells as above.

NCI N-87 cells = assay: Growth of NCI N-87 gastric carcinoma cells; assay type: cell-based; conditions: concentration-dependent
Protocol: To characterize the capacity of gastric and intestinal cells to respond to AMP-18, AGS gastric adenocarcinoma cells, HAE human gastric antrum mucosa primary cultures transformed with SV40 large T antigen, rat diploid small intestinal epithelial cells of the IEC-6 (FIG. 15) and IEC-18 lines, NCI N-87 gastric carcinoma cells, and SK-GT5 gastroesophageal adenocarcinoma cells were studied; human WI-38 fibroblasts and HeLa cells served as non-GI control cell lines. Mitogenesis was assayed by performing cell counts 3 to 4 days after exposing cells to the agent of interest, trypsinizing the culture to prepare single cells, and confirming this while counting them in a hemocytometer.

[2] = test system: Staphylococcus epidermidis; assay: Growth of other bacteria and fungi; assay type: cell-based
Pseudomonas aeruginosa = assay: Growth of other bacteria and fungi; assay type: cell-based
Klebsiella pneumoniae = assay: Growth of other bacteria and fungi; assay type: cell-based
[3] = test system: occludin, ZO-1, ZO-2, claudin-5, E-cadherin, JAM; assay: Accumulation of tight and adherens junction proteins in C2 cells (immunoblot of insoluble fraction, confocal microscopy); assay type: cell-based, human

LDALVKEKKLQGKGPGGPPPK [97–117, peptide 77-97 of the mature protein, same as 97-117 of the human precursor]
cell migration greater than vehicle after DSS removal (IEC-18 cells; 24 hr recovery after scrape wounding, next 24 hr, P<0.001): 40% | migration from the wound edge compared with control (IEC-18 cells; each time point, P<0.005): migrated further | expression of hsp25 and hsp72 compared to vehicle (hsp25, hsp72): greater; also recorded: increased | phospho (P)-hsp25 ([1]; 30 min): stimulated the appearance | activation (phosphorylation) of JNK1/2 and ERK1/2 ([1]; JNKs after 10 min, ERKs at 20 min, listed as AMP peptide): rapidly activated | total hsp25 ([1]; after 1 hr): increase | total p38 MAPK ([1]; peptide 8 μg/ml): no change | p38 MAP kinase phosphorylation ([1]; peptide 8 μg/ml, 30 min, listed as AMP peptide): striking increase; also recorded: increased | protein tyrosine phosphorylation ([1]; peptide 8 μg/ml, two min): tyrosine phosphorylation of several proteins | growth of NCI N-87 cells (NCI N-87 cells): stimulated | growth of Staphylococcus epidermidis [2]: did not alter the growth | growth of Pseudomonas aeruginosa (Pseudomonas aeruginosa): did not alter the growth | growth of Klebsiella pneumoniae (Klebsiella pneumoniae): did not alter the growth | occludin immunoreactivity of peptide-treated cells exposed to DSS ([3]; DSS 4%, vehicle-treated declined about 50% at 1 hr, listed as AMP peptide): did not decline; also recorded: not reduced | perijunctional actin, confocal microscopy ([3]; oxidant (0.3 mM monochloramine) injury): protected | occludin immunoreactivity at cell junctions, confocal microscopy ([3]; pretreated prior to monochloramine 0.3 mM, vs untreated injured cells): more intense
